Results published in US5571806A, “Dibenz[b,f][1,4]oxazepin(and thiazepin)-11(10H)-ones and-thiones and their use in the prevention or treatment of HIV infection” (Boehringer Ingelheim Pharmaceuticals, Inc., priority 1994, dated 1996).

What follows are molecules tested on HIV-1 (assay: Human T Cell Culture Assay (HIV-1 induced syncytia formation in C8166 cells)). Conditions: HTLV-IIIB, four days after virus challenge, compound concentration not given.
Format: cell-based, HIV-1 HTLV-IIIB strain (human C8166 T-cells)
Procedure: In order to confirm that compounds which are active in the RT Assay also have the ability to inhibit HIV replication in a living system, a compound of formula I was also tested in the human T-Cell Culture Assay described below.
Assay Theory: Formation of syncytia is a feature of in vitro cultures of CD4+ T-cells infected with HIV-1. In this assay, T-cells are treated with a putative replication inhibiting compound and then infected with HIV-1. After incubation the culture is checked for the formation of syncytia. The absence or reduction is the number of syncytia is used as a measure of the test compound's ability to inhibit HIV replication.
Assay Method: The target cells, designated C8166, are a subclone of human lymphoma cells of T-cell origin and are established at an initial density of 5×10^4 per 100 μl in RPMI 1640 (+10% fetal bovine serum) culture medium in 96 well flat bottom plates. A selected amount of test compound, dissolved in DMSO is included. After 24 hours, 50-100 TCID50 's (the dose that results in induced effect in 50% of test cultures) of the HTLV-IIIB strain of HIV-1 (2) are innoculated into each culture. Control cultures receive compound or virus only. […] The percent inhibition by the test compound is determined by comparison with control values. […]

| Compound | T-Cell Culture Assay (% inhibition) [%] |
| --- | --- |
| CCCN1C(=O)c2ccccc2Oc2ccccc21 [Example 1, 10-Propyl-10H-Dibenz[b,f][1,4]Oxazepin-11-One] | 93 |

These molecules were tested against T1, HIV-1 reverse transcriptase (Human immunodeficiency virus type 1 group M subtype B, UniProt P03367) (assay: Reverse Transcriptase (RT) Assay (RNA-dependent DNA polymerase activity)). Conditions: 10 μg/ml; poly r(C)/oligo d(G) template, 60 minutes, room temperature; read-out: RT Inhibition (% @ 10 μg/ml).
T1 construct: Reverse transcriptase enzyme from the LAV strain of Human Immuno-deficiencyVirus (HIV-1); made in house; host or cells: E. coli JM109 (species of the strain is own knowledge), DNA clone pBRTprtl+ in expression vector pIBI21 (lac promoter)
Format: biochemical, Human Immunodeficiency Virus (HIV-1), LAV strain
From the text: As stated before, the compounds of formula I inhibit the enzymatic activity of HIV-1 RT. Based upon testing of these compounds, as described below, it is known that they inhibit the RNA-dependent DNA polymerase activity of HIV RT.
Utilizing the Reverse Transcriptase (RT) Assay described below, compounds can be tested for their ability to inhibit the RNA-dependent DNA polymerase activity of HIV RT. Certain specific compounds, described in the Examples which appear below, were so tested.
Among the enzymes for which Human Immunodeficiency Virus (HIV-1) encodes is a reverse transcriptase (1), so-named because it transcribes a DNA copy from an RNA template. This activity can be quantitatively measured in a cell-free enzyme assay which has been previously described (2), and is based upon the observation that reverse transcriptase is able to use a synthetic template [poly r(C) primed with oligo d(G)] to transcribe a radio-labelled, acid-precipitable DNA strand utilizing ^3 H-dGTP as a substrate. […]
a) Preparation of the enzyme
Reverse transcriptase enzyme from the LAV strain of Human Immuno-deficiencyVirus (HIV-1) (1) was isolated from the bacterial strain JM109 (3) expressing the DNA clone pBRTprtl+(2) which is under the control of the lac promotor in the expression vector pIBI21 (4). An overnight culture grown in 2XYT medium (37° C., 225 rpm) (5) supplemented with […] ampicillin for positive selection is inoculated at a 1:40 dilution into M9 medium supplemented with 10 mg/ml thiamine, 0.5% casamino acids, and […] ampicillin (5). The culture is incubated (37° C., 225 rpm) until it reaches an OD540 of 0.3-0.4. At that time the repressor inhibitor IPTG (isopropyl b-D-thiogalactopyranoside) is added to 0.5 mM and incubated for 2 additional hours. Bacteria are pelletted, resuspended in a 50 mM Tris, 0.6 mM EDTA, 0.375M NaCl buffer and digested by the addition of lysozyme (1 mg/ml) for 30 minutes on ice. The cells are lysed by the addition to 0.2% NP-40 and brought to 1M NaCl.
After removal of the insoluble debris by centrifugation, the protein is precipitated by the addition of 3 volumes of saturated aqueous ammonium sulfate. The enzyme is pelleted, resuspended in RT buffer (50 mM Tris pH 7.5, 1 mM EDTA, 5 mMDTT, 0.1% NP-40, 0.1M NaCl, and 50% glycerol) and stored at -70° C. for further use. […]
b) Composition of 2X concentrated stock reaction mixture
Stock Reagent 2X Mix Concentration
[poly r(C)/oligo d(G)](5:1)
The 2X concentrated stock reaction mixture is aliquoted and stored at -20° C. The mixture is stable and thawed for use in each assay. This enzyme assay has been adapted to a 96 well microtiter plate system, and has been previously described (6). Tris buffer (50 mM, pH 7.4), vehicle (solvent diluted to match the compound dilution), or compounds in vehicle are dispensed into 96-well microtiter plates (10 μl/well; 3 wells/compound). The HIV RT enzyme is thawed, diluted in 50 mM Tris pH 7.4 so that fifteen μl of diluted enzyme contain 0.001 Unit (one unit is that amount of enzyme to transform 1 micromole of substrate per minute at 25° C.), and 15 μl are dispensed per well. Twenty μl of 0.12-0.5M EDTA are added to the first three wells of the microtiter plate. EDTA chelates the Mg^++ present and prevents reverse transcription. This group serves as background polymerization which is subtracted from all other groups. Twenty-five μl of the 2X reaction mixture are added to all wells and the assay is allowed to incubate at room temperature for 60 minutes. The assay is terminated by precipitating the DNA in each well with 50μl of 10% trichloracetic acid (TCA) in 1% sodium pyrophosphate. The microtiter plate is incubated for 15 minutes at 4° C. and the precipitate is fixed onto #30 glass fiber paper (Schleicher & Schuell) using a Skatron semi-automatic harvester. […]

| Compound | inhibition at 10 µg/mL [%] |
| --- | --- |
| CSCN1C(=O)c2ccccc2Oc2ccccc21 [Example 34] | 100 |
| CN1C(=O)c2ccccc2Oc2ccccc21 [Example 10] | 93 |
| NC(=O)CN1C(=O)c2ccccc2Sc2ccccc21 [Example 50] | 66 |
| CNc1ccc2c(c1)C(=O)Nc1ccccc1O2 [Example 28] | 30 |
| NC(=O)CN1C(=O)c2cc(N)ccc2Oc2ccccc21 [Example 15] | 82 |
| C[S+]([O-])CN1C(=O)c2ccccc2Oc2ccccc21 (stereo not drawn) [Example 35] | 58 |
| CCN1C(=O)c2cc(N)ccc2Oc2ccccc21 [Example 16] | 100 |
| Cc1ccc2c(c1)Oc1ccc(N)cc1C(=O)N2 [Example 30] | 96 |
| CCOc1ccc2c(c1)Oc1ccccc1C(=O)N2 [Example 42] | 30 |
| CN1C(=O)c2ccccc2Sc2ccccc21 [Example 49] | 94 |
| Nc1ccc2c(c1)Oc1ccccc1C(=O)N2 [Example 21] | 3 |
| CCOc1ccc2c(c1)Oc1ccccc1C(=O)N2C [Example 32] | 77 |
| CSCN1C(=O)c2ccc(Cl)cc2Oc2ccccc21 [Example 37] | 98 |
| CCOc1ccc2c(c1)Oc1ccccc1C(=O)N2CC [Example 33] | 74 |
| CN1C(=O)c2ccccc2Oc2cc(N)ccc21 [Example 24] | 44 |
| CSCCN1C(=O)c2ccccc2Oc2ccccc21 [Example 36] | 85 |
| Cc1ccc2c(c1)NC(=O)c1cc(N)ccc1O2 [Example 18] | 71 |
| C=CCN1C(=O)c2ccccc2Oc2ccccc21 [Example 9] | 98 |
| O=C1c2ccccc2Oc2ccccc2N1C(F)=CI [Example 47] | 92 |
| CN1C(=O)c2cc(N)ccc2Oc2ccccc21 [Example 22] | 99 |
| CC(C)N1C(=O)c2ccccc2Oc2ccccc21 [Example 2, 10-Isopropyl-10H-Dibenz[b,f][1,4]Oxazepin-11-One] | 100 |
| Nc1ccc2c(c1)C(=O)Nc1cc(Cl)ccc1O2 [Example 17] | 67 |
| CCOC(=O)CN1C(=O)c2ccccc2Oc2ccccc21 [Example 43] | 76 |
| COc1ccc2c(c1)Oc1ccccc1C(=O)N2 [Example 44] | 27 |

| Compound | inhibition at 10 µg/mL [%] |
| --- | --- |
| CSCCN1C(=O)c2ccccc2Oc2cc(C)ccc21 [Example 39] | 95 |
| O=C1c2ccccc2Oc2ccccc2N1CC(F)(F)F [Example 48] | 87 |
| O=C1Nc2ccccc2Sc2ccccc21 [Example 4, Dibenz[b,f][1,4]Thiazepin-11(10H)-One] | 43 |
| CCCN1C(=O)c2ccccc2Sc2ccccc21 [Example 5, 10-n-Propyl-Dibenz[b,f][1.4]Thiazepin-11(10H)-One] | 98 |
| CN1C(=O)c2ccc(N)cc2Oc2ccccc21 [Example 25] | 26 |
| Cc1ccc2c(c1)Oc1ccccc1C(=O)N2C[S+](C)[O-] (stereo not drawn) [Example 40] | 77 |
| CCC(=O)N1C(=O)c2ccccc2Oc2ccccc21 [Example 12] | 44 |
| CSCCN1C(=O)c2ccc(Cl)cc2Oc2ccccc21 [Example 38] | 83 |
| CCN1C(=O)c2cc(N)ccc2Oc2ccc(Cl)cc21 [Example 20] | 95 |
| CCN1C(=O)c2cc(N)ccc2Oc2ccc(C)cc21 [Example 19] | 100 |
| O=C1Nc2ccccc2Oc2ccccc21 [Example 7] | 22 |
| COc1ccc2c(c1)Oc1cccc(OC)c1C(=O)N2 [Example 45] | 44 |
| Nc1ccc2c(c1)Oc1ccccc1NC2=O [Example 23] | 25 |
| C=C(C)CN1C(=O)c2ccccc2Oc2ccccc21 [Example 11] | 77 |
| O=C1c2ccccc2Oc2ccccc2N1CCF [Example 46] | 93 |
| C=CCN1C(=O)c2cc(N)ccc2Oc2ccccc21 [Example 27] | 100 |
| CCCN1C(=S)c2ccccc2Oc2ccccc21 [Example 3, 10 -Propyl-10H-Dibenz [b,f][1,4]Oxazepin-11-Thione] | 94 |
| CNc1ccc2c(c1)C(=O)N(C)c1ccccc1O2 [Example 26] | 75 |
| Cc1ccc2c(c1)Oc1ccccc1C(=O)N2CC(N)=O [Example 31] | 77 |
| COc1cccc2c1Oc1ccccc1N(CC(N)=O)C2=O [Example 13] | 32 |
| CCN1C(=O)c2ccccc2Oc2ccccc21 [Example 8] | 100 |
| CCCN1C(=O)c2ccccc2Oc2ccccc21 [Example 1, 10-Propyl-10H-Dibenz[b,f][1,4]Oxazepin-11-One] | 100 |
| CSCCN1C(=O)c2cc(Cl)ccc2Oc2ccccc21 [Example 41] | 49 |
| Nc1ccc2c(c1)C(=O)Nc1ccccc1O2 [Example 14] | 85 |

Same assay, conditions: read-out: RT Inhibition (% @ 10 μg/ml)

| Compound | inhibition at 10 µg/mL [%] |
| --- | --- |
| Cc1ccc2c(c1)Oc1ccc(N)cc1C(=O)N2C [Example 6, 2-Amino-7,10-Dimethyldibenz[b,f][1,4]Oxazepin-11(10H)-One] | 100 |
| C=CCN1C(=O)c2ccccc2Oc2cc(N)ccc21 [Example 29] | 89 |
